One series has as its system ewes. The following applies: in vivo; cited from earlier work.
A further series deals with Maiden Merino ewes. The settings on record: in vivo.

Consider `COc1ccc2[nH]cc(CCNC(C)=O)c2c1` [Melatonin, N-acetyl 5-methoxy tryptamine], for which, in the series with ewes, the basal prolactin levels entry is “depressed” and the breeding season entry was “advanced”. Moreover, the superovulation result in the series with Maiden Merino ewes is on record as “does not induce superovulation”.

The record behind these values is patent US4882137A, “Coated veterinary implants” (priority 1986, dated 1989).
